In US8633237B2, “Indane derivatives” (Merck Sharp & Dohme B.V., priority 2009, dated 2014) one finds EC50 data, which are given here for one compound.

Usually EC50 stands for the concentration giving half of the maximal effect.

Molecules are shown by their SMILES.

For this assay, the target named is T1, AMPA (GluR1) receptor (Homo sapiens, UniProt P42261).
T1 construct: expressed in transfected cells; host or cells: HEK cells (HEK.GluR1(i)), kept under hygromycin selection
As to the kind of experiment: Ca2+ influx fluorescence assay (FLEXstation, Fluo-3) in HEK.GluR1(i) cells. The format is cell-based. Conditions: glutamate +/- test compound, read-out: EC50, positive modulation of the AMPA receptor. An excerpt: The compounds in this invention may be tested using a biological assay which measures Ca^2+ influx mediated through positive modulation of the AMPA (GluR1) receptor using standard techniques in the art such as, but not limited to, a FLEXstation (manufactured by Molecular Devices, Sunnyvale, Calif.). An optical readout using fluorescent probes is employed to measure ion channel dependent changes in intracellular ion concentration or membrane potential. The assay utilises the Ca^2+ conductance of functional homomeric GluR1(i) AMPA receptors to generate glutamate-dependent Ca^2+ responses. Influx of Ca^2+ through the ion channel is measured indirectly through an increase in intracellular Ca^2+ levels using the calcium sensitive dye such as, but not limited to, Fluo-3 (Molecular Devices, Sunnyvale, Calif.) in FLEXstation. A positive AMPA receptor modulator, in the presence of glutamate, will result in an influx of Ca^2+ through the ion channel which can be measured indirectly through an increase in intracellular Ca2+ levels using the calcium sensitive dye Fluo-3 in FLEXstation.
HEK.GluR1(i) cells were maintained in DMEM supplemented with 10% fetaclone II, 1% non-essential amino acids and 150 μg/mL hygromycin, at 37° C./5% CO2. […]

T1 sequence (P42261 19-906 isoform P42261-2 limits assumed, species assumed): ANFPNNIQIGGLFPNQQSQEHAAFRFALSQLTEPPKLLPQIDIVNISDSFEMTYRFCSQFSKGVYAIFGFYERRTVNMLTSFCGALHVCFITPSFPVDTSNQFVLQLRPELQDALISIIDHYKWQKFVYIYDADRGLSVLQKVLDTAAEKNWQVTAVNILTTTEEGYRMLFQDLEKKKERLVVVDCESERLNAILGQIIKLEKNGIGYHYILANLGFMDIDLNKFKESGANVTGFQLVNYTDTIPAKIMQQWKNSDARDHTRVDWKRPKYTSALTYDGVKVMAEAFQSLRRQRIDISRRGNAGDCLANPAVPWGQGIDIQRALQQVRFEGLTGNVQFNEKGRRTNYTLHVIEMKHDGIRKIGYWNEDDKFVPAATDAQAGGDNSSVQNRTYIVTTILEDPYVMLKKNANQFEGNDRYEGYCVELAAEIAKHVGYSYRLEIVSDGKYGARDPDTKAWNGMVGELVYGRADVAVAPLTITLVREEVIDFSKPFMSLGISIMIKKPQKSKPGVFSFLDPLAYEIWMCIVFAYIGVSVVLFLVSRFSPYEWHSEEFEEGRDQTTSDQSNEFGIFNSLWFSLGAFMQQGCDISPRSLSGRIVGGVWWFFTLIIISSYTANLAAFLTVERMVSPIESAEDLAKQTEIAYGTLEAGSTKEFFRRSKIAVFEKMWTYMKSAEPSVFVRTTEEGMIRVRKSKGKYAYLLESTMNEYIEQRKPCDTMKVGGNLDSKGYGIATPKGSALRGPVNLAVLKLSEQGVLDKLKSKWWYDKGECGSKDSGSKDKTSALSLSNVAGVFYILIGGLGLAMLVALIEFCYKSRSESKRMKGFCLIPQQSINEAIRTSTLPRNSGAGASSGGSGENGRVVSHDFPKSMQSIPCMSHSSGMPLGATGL

`CC(C)S(=O)(=O)N[C@H]1Cc2ccc(Oc3cccc(C(F)(F)F)c3)cc2C1` [Example 9, (S)-N-(5-(3-(trifluoromethyl)phenoxy)-2,3-dihydro-1H-inden-2-yl)propane-2-sulfonamide]: the EC50 stood at 2.3 µM.
